Legend:
Assay type in all cases: cell-based
5-HT2 receptor = molecular target: T1, 5-HT2 receptor (Rattus norvegicus, UniProt P14842); assay: Aequorin light emission assay in human 293 cells co-transfected with apoaequorin cDNA and 5-HT2 cDNA; details: for Antagonist inhibition of light emission in response to serotonin: 50 μM antagonist, 30 seconds before 10 μM serotonin, FIG. 2
T1 construct: expressed in transfected cells; host or cells: human 293 cells, transiently co-transfected with pDPaqneo3 (apoaequorin) and pDP5ht2neo3
Experimental: DNA from the apoaequorin plasmid (pDPaqneo3) and the 5-HT2 plasmid (pDPSht2neo3) were mixed in equal portions in the transfection solution immediately before transfection. Transfection was performed as described in Example 2.
(§1) Two days after the transfection, cells were washed twice with phosphate buffered saline (PBS). Cells were then harvested by ice-cold PBS and rubber policeman. After centrifugation at 1,600 r.p.m. for 5 minutes, the pellet was dissolved in Ca^++ -free AqH buffer (120 mM NaCl, 4.8 mM KCl, 1.2 mM KH2 PO4, 25 mM Hepes, 0.1% bovine serum albumin, pH 7.4) at a concentration about 10 million cells per 1 ml solution. Tubes containing cells were wrapped with aluminum foil. Coelenterazine was a generous gift from Dr. Kishi, Harvard University and Dr. Shimomura, Marine Biological Laboratory. It was stored at -70° C., dissolved in methanol immediately before use, and kept in the dark at all times. The concentration of coelenterazine was estimated by the measurement of absorbance at 434 nanometer [the molar absorptivity434 =8,900 M^-1·cm^-1; K. Hori, H. Charbonneau, R. C. Hart, M. J. Cormier, Proc. Natl. Acad. Sci. U.S.A. 74, 4285 (1977)]. Aequorin was reconstituted incubating these apoaequorin cDNA transfected cells with 10 μM coelenterazine in the dark room temperature for 30 minutes. Unincorporated coelenterazine was washed away after incubation by adding 25 ml Ca^++ -free AqH buffer to each sample and centrifugating at 1,600 r.p.m. Samples were centrifuged again and pellets of 293 cells were dissolved in Ca^++ -free AqH buffer. The final concentration of cells was approximately 10 million per 1 ml solution. For light emission measurement, 100 μl of cell sample was mixed with equal volume of appropriate reagent in a 2 ml glass tube immediately before inserted into the luminometer (Berthold Biolumat LB 9500). Counting of light emission started immediately after the glass tube insertion. The number of photons emitted during the first 30 seconds was integrated by the luminometer and shown on the screen. The time course of light emission was recorded on a chart recorder and a Mackintosh computer using the MacLab Chart/4 V3.1.3 program for further analysis.
Intracellular calcium concentration was measured as described in Example 15.

human 293 cells = assay: Aequorin expression assay in human 293 cells transfected with a single plasmid (pDPaqneo3, pDP5ht2neo3 or pDP3 vector)
Experimental: Human 293 cells were cultured on 100 mm tissue culture dish in minimum essential medium (MEM) containing 10% charcoal treated fetal bovine serum, 2 mM L-glutamine, 100 units penicillin G sodium per ml, 100 units streptomycin sulfate per ml. DNA mediated transfection was performed when these cells grew to 70% to 80% confluence on the plates. These transfected cells were incubated in 3% CO2, 37° C. incubator overnight. Cells were replenished with fresh medium and transferred to 5% CO2, 37° C. incubator the next day [C. […] (17).
as §1, with “The concentration of coelenterazine was estimated by the measurement of absorbance at 434 nanometer [the molar absorptivity434 =8,900 M^-1·cm^-1; K. Hori, H. Charbonneau, R. C. Hart, M. J. Cormier, Proc. Natl. Acad. Sci. U.S.A. 74, 4285 (1977)].” left out

[1] = system: mouse primary neuron culture; assay: Photon emission of primary neuron cultures from apoaequorin transgenic mice
Experimental: A transgenic mouse was mated with non-transgenic mouse B6XSJLF1 female mouse. The whole brains were removed from 19 day old mouse embryos and used to make primary neuronal cultures and incubated in minimum essential medium containing 500 μg genticin per ml. After ten days, cells were removed from plates, mixed with colenterazine and tested for aequorin expression using an expression assay.
Embryos resulting from mating transgenic mouse no.
Thereafter 10 μl (1 mg/ml PBS) Br-A23187 and 0.5 mM CaCl2 were added to the cell culture. The drug Br-A23187 opens calcium channels.

T1 sequence (P14842 whole entry): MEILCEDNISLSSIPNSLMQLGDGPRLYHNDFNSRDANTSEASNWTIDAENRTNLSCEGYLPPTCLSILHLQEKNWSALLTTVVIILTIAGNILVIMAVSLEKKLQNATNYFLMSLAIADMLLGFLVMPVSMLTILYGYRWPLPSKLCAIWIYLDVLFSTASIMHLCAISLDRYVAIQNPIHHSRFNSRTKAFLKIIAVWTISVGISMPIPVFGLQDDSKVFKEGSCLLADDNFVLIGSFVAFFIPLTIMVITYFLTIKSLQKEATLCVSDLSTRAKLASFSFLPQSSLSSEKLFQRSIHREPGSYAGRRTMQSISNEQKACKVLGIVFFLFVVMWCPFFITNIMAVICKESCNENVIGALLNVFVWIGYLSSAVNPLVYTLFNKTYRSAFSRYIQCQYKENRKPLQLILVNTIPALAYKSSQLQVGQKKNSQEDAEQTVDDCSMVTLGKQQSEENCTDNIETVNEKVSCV

## O=C(c1ccc(F)cc1)C1CCN(CCn2c(=O)[nH]c3ccccc3c2=O)CC1 [ketanserin]
5-HT2 receptor
  Antagonist inhibition of light emission in response to serotonin: inhibited

## NCCc1c[nH]c2ccc(O)cc12 [serotonin]
Human 293 cells; cells transfected with pDP3 vector only, 500 nM
  Detected photons: 1,599 photons
Human 293 cells; cells transfected with pDP5ht2neo3 only, 500 nM
  Detected photons: 1,308 ± 339 photons
Human 293 cells; cells transfected with pDPaqneo3 only, pDP5ht2neo3 only or pDP3 vector only
  Photon emission upon serotonin treatment: no increase of photo emission
Human 293 cells; cells transfected with pDPaqneo3 only, 500 nM
  Detected photons: 6,150 photons
5-HT2 receptor; cells co-transfected with pDPaqneo3 and pDP5ht2neo3
  Photon emission upon addition of serotonin: dramatic rise in photon emission
5-HT2 receptor; cells transfected with pDPaqneo3 & pDP5ht2neo3, 500 nM, first 30 seconds
  Detected photons: 79,840 ± 3,342 photons
5-HT2 receptor; saturating concentration (500 μM)
  Photon emissions per cell: ≤ 40 photons per cell

## Br-A23187
[1]; 10 μl (1 mg/ml PBS) Br-A23187 with 0.5 mM CaCl2, culture from transgenic mouse no. 20, FIG. 6A
  Photon emission (excitotoxicity): increased excitotoxicity
[1]; Br-A23187 with 0.5 mM CaCl2 and 50 mM EGTA, culture from transgenic mouse no. 20, FIG. 6B
  Photon emission (excitotoxicity): increased excitotoxicity

## O=C(O)CN(CCN(CC(=O)O)CC(=O)O)CC(=O)O [EDTA]
Human 293 cells; EDTA added to buffer, pDPaqneo3-transfected cells (data not shown)
  Effect on Ca++ induced photon emission: prevented the increase in photon emission

## [Ca+2].[Cl-].[Cl-] [Ca^++, CaCl2]
Human 293 cells; cells transfected with pDP3 vector only, 50 nM Ca++
  Detected photons: 1,607 photons
Human 293 cells; cells transfected with pDP5ht2neo3 only, 50 nM Ca++
  Detected photons: 1,346 ± 167 photons
Human 293 cells; cells transfected with pDPaqneo3 and incubated with coelenterazine cofactor
  Photons detected upon addition of Ca++: rapid and dramatic increase in the photons detected
Human 293 cells; cells transfected with pDPaqneo3 only, 50 nM Ca++
  Detected photons: 293,209 photons
Human 293 cells; cells transfected with plasmids not containing apoaequorin cDNA and untransfected cells
  Emission of photons upon addition of Ca++: no rise in the emission of photons
Human 293 cells; pDPaqneo3 transfected cells not incubated with coelenterazine cofactor
  Light emission upon addition of Ca++: no increase of light emission
[1]; 100 μl of 100 mM CaCl2, control non-transgenic neuronal culture no. 6, FIG. 5B
  Photon emission (excitotoxicity): no excitotoxic effect
[1]; 100 μl of 100 mM CaCl2, culture from transgenic mouse no. 2, FIG. 5A
  Photon emission (excitotoxicity): increase in cell excitotoxicity

## CN(C)CCCSc1ccccc1NC(=O)/C=C/c1ccccc1 [cinanserin]
5-HT2 receptor
  Antagonist inhibition of light emission in response to serotonin: inhibited

From US5714666A, “Measurement of intracellular calcium using bioluminescent apoaequorin expressed in mammalian cells” (Children's Hospital of Philadelphia, priority 1995, dated 1998)
